Tests used:
[1] = The drug is tested on Bacteroides fragilis strain: HMW615 for biotransformation. The drug concentrations were measured before and after a 12-h incubation by liquid-chromatography-coupled mass spectrometry (LC–MS); conditions: 2 µM
[2] = The drug is tested on Odoribacter splanchnicus strain: fecal isolate for biotransformation. The drug concentrations were measured before and after a 12-h incubation by liquid-chromatography-coupled mass spectrometry (LC–MS); conditions: 2 µM
[3] = The drug is tested on Parabacteroides merdae strain: ATCC43184 for biotransformation. The drug concentrations were measured before and after a 12-h incubation by liquid-chromatography-coupled mass spectrometry (LC–MS); conditions: 2 µM
[4] = The drug is tested on Anaerococcus hydrogenalis strain: DSM7454 for biotransformation. The drug concentrations were measured before and after a 12-h incubation by liquid-chromatography-coupled mass spectrometry (LC–MS); conditions: 2 µM
[5] = The drug is tested on Clostridium asparagiforme strain: DSM15981 for biotransformation. The drug concentrations were measured before and after a 12-h incubation by liquid-chromatography-coupled mass spectrometry (LC–MS); type: ADME; set-up: dose 2 uM, timepoint 0 vs 12 hours; conditions: enterocloster asparagiformis, 2 µM
[6] = The drug is tested on Clostridium scindens strain: ATCC35704 for biotransformation. The drug concentrations were measured before and after a 12-h incubation by liquid-chromatography-coupled mass spectrometry (LC–MS); conditions: 2 µM
[7] = The drug is tested on Clostridium sporogenes strain: ATCC15579 for biotransformation. The drug concentrations were measured before and after a 12-h incubation by liquid-chromatography-coupled mass spectrometry (LC–MS); conditions: 2 µM
[8] = The drug is tested on Coprococcus comes strain: ATCC27758 for biotransformation. The drug concentrations were measured before and after a 12-h incubation by liquid-chromatography-coupled mass spectrometry (LC–MS); type: ADME; set-up: dose 2 uM, timepoint 0 vs 12 hours; conditions: 2 µM
[9] = The drug is tested on Enterococcus faecalis strain: V583 for biotransformation. The drug concentrations were measured before and after a 12-h incubation by liquid-chromatography-coupled mass spectrometry (LC–MS); conditions: 2 µM
[10] = The drug is tested on Eubacterium hallii strain: DSM3353 for biotransformation. The drug concentrations were measured before and after a 12-h incubation by liquid-chromatography-coupled mass spectrometry (LC–MS); conditions: anaerobutyricum hallii, 2 µM
[11] = The drug is tested on Enterobacter cancerogenus strain: ATCC35316 for biotransformation. The drug concentrations were measured before and after a 12-h incubation by liquid-chromatography-coupled mass spectrometry (LC–MS); conditions: 2 µM
[12] = The drug is tested on Providencia stuartii strain: ATCC25827 for biotransformation. The drug concentrations were measured before and after a 12-h incubation by liquid-chromatography-coupled mass spectrometry (LC–MS); conditions: 2 µM
[13] = parabacteroides distasonis, 12 h, 2 µM
Description: The drug is tested on Parabacteroides distasonis strain: ATCC8503 for biotransformation. The drug concentrations were measured before and after a 12-h incubation by liquid-chromatography-coupled mass spectrometry (LC–MS)

[14] = segatella copri, 12 h, 2 µM
Description: The drug is tested on Prevotella copri strain: DSM18205 for biotransformation. The drug concentrations were measured before and after a 12-h incubation by liquid-chromatography-coupled mass spectrometry (LC–MS)

[15] = enterocloster bolteae, 12 h, 2 µM
Description: The drug is tested on Clostridium bolteae strain: ATCCBAA-613 for biotransformation. The drug concentrations were measured before and after a 12-h incubation by liquid-chromatography-coupled mass spectrometry (LC–MS)

[16] = limosilactobacillus reuteri cf48-3a, 12 h, 2 µM
Description: The drug is tested on Lactobacillus reuteri CF48-3A strain: BEI HM-102 for biotransformation. The drug concentrations were measured before and after a 12-h incubation by liquid-chromatography-coupled mass spectrometry (LC–MS)

[17] = The drug is tested on Collinsella aerofaciens strain: ATCC25986 for biotransformation. The drug concentrations were measured before and after a 12-h incubation by liquid-chromatography-coupled mass spectrometry (LC–MS); conditions: 2 µM
[18] = The drug is tested on Clostridium sp. strain: fecal isolate for biotransformation. The drug concentrations were measured before and after a 12-h incubation by liquid-chromatography-coupled mass spectrometry (LC–MS); conditions: 2 µM
[19] = The drug is tested on Ruminococcus gnavus strain: ATCC29149 for biotransformation. The drug concentrations were measured before and after a 12-h incubation by liquid-chromatography-coupled mass spectrometry (LC–MS); conditions: mediterraneibacter gnavus, 2 µM
[20] = bacteroides fragilis, 12 h, 2 µM
Description: The drug is tested on Bacteroides fragilis strain: NCTC 9343 for biotransformation. The drug concentrations were measured before and after a 12-h incubation by liquid-chromatography-coupled mass spectrometry (LC–MS)

Row | SMILES | Bacterial Biotransformation [1] | Bacterial Biotransformation [2] | Bacterial Biotransformation [3] | Bacterial Biotransformation [4] | Bacterial Biotransformation [5] | Bacterial Biotransformation [6] | Bacterial Biotransformation [7] | Bacterial Biotransformation [8] | Bacterial Biotransformation [9] | Bacterial Biotransformation [10] | Bacterial Biotransformation [11] | Bacterial Biotransformation [12] | Bacterial Biotransformation [13] | Bacterial Biotransformation [14] | Bacterial Biotransformation [15] | Bacterial Biotransformation [16] | Bacterial Biotransformation [17] | Bacterial Biotransformation [18] | Bacterial Biotransformation [19] | Bacterial Biotransformation [20]
1 | Cc1cn([C@H]2C[C@H](N=[N+]=[N-])[C@@H](CO)O2)c(=O)[nH]c1=O [ZIDOVUDINE] | Compound NOT metabolized | Compound NOT metabolized | Compound NOT metabolized | Compound metabolized | Compound NOT metabolized | Compound NOT metabolized | Compound metabolized | Compound metabolized | Compound NOT metabolized | Compound NOT metabolized | Compound NOT metabolized | Compound NOT metabolized | Compound NOT metabolized | Compound NOT metabolized | Compound NOT metabolized | Compound NOT metabolized |  |  |  | 
2 | CNS(=O)(=O)Cc1ccc2[nH]cc(CCN(C)C)c2c1.O=C(O)CCC(=O)O [SUMATRIPTAN SUCCINATE] |  | Compound NOT metabolized | Compound NOT metabolized | Compound NOT metabolized | Compound NOT metabolized | Compound NOT metabolized | Compound NOT metabolized | Compound NOT metabolized | Compound NOT metabolized | Compound NOT metabolized | Compound metabolized | Compound NOT metabolized | Compound NOT metabolized | Compound NOT metabolized | Compound NOT metabolized | Compound NOT metabolized | Compound NOT metabolized | Compound NOT metabolized | Compound NOT metabolized | Compound NOT metabolized
3 | O=C(CCCN1CCC2(CC1)C(=O)NCN2c1ccccc1)c1ccc(F)cc1 [SPIPERONE] | Compound NOT metabolized |  | Compound NOT metabolized | Compound NOT metabolized | Compound NOT metabolized | Compound NOT metabolized |  |  | Compound NOT metabolized | Compound NOT metabolized | Compound NOT metabolized |  |  | Compound NOT metabolized | Compound NOT metabolized | Compound NOT metabolized | Compound NOT metabolized | Compound NOT metabolized | Compound NOT metabolized | Compound NOT metabolized
4 | NC(CO)(CO)CO.O=C(c1ccccc1)c1ccc2n1CCC2C(=O)O (stereo not drawn) [KETOROLAC TROMETHAMINE] |  | Compound NOT metabolized |  | Compound NOT metabolized | Compound NOT metabolized | Compound NOT metabolized | Compound NOT metabolized |  | Compound NOT metabolized |  | Compound NOT metabolized | Compound NOT metabolized |  | Compound metabolized | Compound NOT metabolized | Compound NOT metabolized | Compound NOT metabolized | Compound metabolized | Compound metabolized | Compound metabolized
5 | COc1ccc(CN2CCNCC2)c(OC)c1OC.Cl.Cl [TRIMETAZIDINE DIHYDROCHLORIDE] |  |  | Compound metabolized | Compound NOT metabolized | Compound metabolized | Compound NOT metabolized | Compound NOT metabolized | Compound NOT metabolized | Compound NOT metabolized | Compound NOT metabolized | Compound NOT metabolized | Compound NOT metabolized | Compound metabolized | Compound NOT metabolized | Compound NOT metabolized | Compound NOT metabolized | Compound NOT metabolized | Compound NOT metabolized | Compound NOT metabolized | Compound metabolized
6 | C[C@@H](CO)NC(=O)[C@@H]1C=C2c3cccc4[nH]cc(c34)C[C@H]2N(C)C1.O=C(O)/C=C\C(=O)O [ERGONOVINE MALEATE] | Compound metabolized | Compound metabolized |  | Compound metabolized | Compound metabolized | Compound metabolized |  | Compound metabolized | Compound NOT metabolized |  | Compound metabolized | Compound metabolized |  | Compound metabolized |  | Compound metabolized | Compound metabolized |  |  | Compound metabolized
7 | N=C(N)NC(=O)Cc1c(Cl)cccc1Cl [GUANFACINE] | Compound NOT metabolized | Compound NOT metabolized | Compound NOT metabolized | Compound NOT metabolized | Compound NOT metabolized |  | Compound NOT metabolized | Compound NOT metabolized | Compound NOT metabolized | Compound NOT metabolized | Compound NOT metabolized | Compound NOT metabolized | Compound NOT metabolized |  | Compound NOT metabolized |  | Compound NOT metabolized |  | Compound NOT metabolized | Compound NOT metabolized
8 | CC(C)NCC(O)c1ccc(NS(C)(=O)=O)cc1 (stereo not drawn) [SOTALOL] | Compound metabolized | Compound NOT metabolized | Compound NOT metabolized | Compound NOT metabolized | Compound NOT metabolized | Compound NOT metabolized | Compound NOT metabolized | Compound NOT metabolized | Compound NOT metabolized | Compound NOT metabolized | Compound NOT metabolized | Compound NOT metabolized | Compound NOT metabolized | Compound NOT metabolized | Compound NOT metabolized | Compound NOT metabolized | Compound NOT metabolized |  | Compound NOT metabolized | Compound NOT metabolized
9 | CCCN(CCC)CCc1cccc2c1CC(=O)N2 [ROPINIROLE] | Compound NOT metabolized |  | Compound NOT metabolized | Compound NOT metabolized | Compound NOT metabolized | Compound NOT metabolized | Compound NOT metabolized | Compound NOT metabolized | Compound NOT metabolized | Compound NOT metabolized | Compound NOT metabolized | Compound NOT metabolized |  | Compound NOT metabolized | Compound NOT metabolized | Compound NOT metabolized | Compound NOT metabolized |  | Compound NOT metabolized | Compound NOT metabolized
